Measurements published in the NIST ThermoML archive (doi:10.1021/je030107c).

Assays:
[1] = refractive index (Na D-line) (dimensionless); xn = mol fraction of the nth substance listed; details: 101.3 kPa, Liquid, Standard Abbe refractometry
[2] = xn = mol fraction of the nth substance listed; details: 101.3 kPa, Liquid; for viscosity: Capillary tube (Ostwald / Ubbelohde) method; for speed of sound: Linear variable-path acoustic interferometer; for mass density: Pycnometric method

CCCCN(CCCC)CCCC [tributylamine] + C1COCCO1
Details	mass density, 298.15 K [kg/m3]	mass density, 303.15 K [kg/m3]	mass density, 308.15 K [kg/m3]	refractive index, 298.15 K	refractive index, 303.15 K	refractive index, 308.15 K	speed of sound, 298.15 K [m/s]	viscosity, 298.15 K [mPa·s]	viscosity, 303.15 K [mPa·s]	viscosity, 308.15 K [mPa·s]
[1], x2 = 0	–	–	–	1.4274	1.4251	1.4226	–	–	–	–
[1], x2 = 0.1201	–	–	–	1.4266	1.424	1.4215	–	–	–	–
[1], x2 = 0.2122	–	–	–	1.4259	1.4236	1.421	–	–	–	–
[1], x2 = 0.3072	–	–	–	1.425	1.4226	1.4201	–	–	–	–
[1], x2 = 0.4085	–	–	–	1.4244	1.4218	1.4196	–	–	–	–
[1], x2 = 0.5014	–	–	–	1.4234	1.4209	1.4184	–	–	–	–
[1], x2 = 0.5972	–	–	–	1.4226	1.4201	1.4174	–	–	–	–
[1], x2 = 0.6998	–	–	–	1.4217	1.4192	1.4168	–	–	–	–
[1], x2 = 0.7999	–	–	–	1.421	1.4185	1.416	–	–	–	–
[1], x2 = 0.8947	–	–	–	1.4205	1.418	1.4154	–	–	–	–
[2], x2 = 0	774.4	770.1	766.2	–	–	–	1261	1.36	1.221	1.125
[2], x2 = 0.1201	785.1	780.9	776.8	–	–	–	1253	1.245	1.142	1.039
[2], x2 = 0.2122	794.7	790.2	785.9	–	–	–	1254	1.19	1.089	0.989
[2], x2 = 0.3072	806	801.6	797.1	–	–	–	1257	1.156	1.059	0.963
[2], x2 = 0.4085	820.5	815.9	811.4	–	–	–	1264	1.137	1.044	0.95
[2], x2 = 0.5014	836.6	832.1	827.5	–	–	–	1272	1.123	1.032	0.94
[2], x2 = 0.5972	856.9	852.1	847.4	–	–	–	1281	1.118	1.026	0.934
[2], x2 = 0.6998	884	879.2	874.1	–	–	–	1292	1.112	1.022	0.933
[2], x2 = 0.7999	917.9	912.6	907.4	–	–	–	1305	1.114	1.025	0.936
[2], x2 = 0.8947	960.6	955.2	949.9	–	–	–	1320	1.133	1.042	0.952

CCN(CC)CC [triethylamine] + C1COCCO1
Details	mass density, 298.15 K [kg/m3]	mass density, 303.15 K [kg/m3]	mass density, 308.15 K [kg/m3]	refractive index, 298.15 K	refractive index, 303.15 K	refractive index, 308.15 K	speed of sound, 298.15 K [m/s]	viscosity, 298.15 K [mPa·s]	viscosity, 303.15 K [mPa·s]	viscosity, 308.15 K [mPa·s]
[1], x2 = 0	–	–	–	1.3983	1.3955	1.3926	–	–	–	–
[1], x2 = 0.1104	–	–	–	1.3996	1.3969	1.3942	–	–	–	–
[1], x2 = 0.2044	–	–	–	1.4014	1.3985	1.3956	–	–	–	–
[1], x2 = 0.3028	–	–	–	1.4032	1.4002	1.3972	–	–	–	–
[1], x2 = 0.398	–	–	–	1.4048	1.402	1.3994	–	–	–	–
[1], x2 = 0.4946	–	–	–	1.4068	1.404	1.4013	–	–	–	–
[1], x2 = 0.5986	–	–	–	1.4095	1.4067	1.4041	–	–	–	–
[1], x2 = 0.6952	–	–	–	1.4117	1.409	1.4062	–	–	–	–
[1], x2 = 0.7996	–	–	–	1.4147	1.412	1.4093	–	–	–	–
[1], x2 = 0.8934	–	–	–	1.4176	1.4148	1.4121	–	–	–	–
[2], x2 = 0	723.1	718.5	713.6	–	–	–	1127	0.363	0.347	0.33
[2], x2 = 0.1104	744.6	739.7	734.8	–	–	–	1139	0.392	0.372	0.353
[2], x2 = 0.2044	764.5	759.5	754.6	–	–	–	1155	0.418	0.397	0.377
[2], x2 = 0.3028	787.3	782.2	777.1	–	–	–	1172	0.451	0.428	0.404
[2], x2 = 0.398	811.3	806.1	800.9	–	–	–	1189	0.494	0.466	0.438
[2], x2 = 0.4946	838	832.8	827.5	–	–	–	1210	0.542	0.512	0.481
[2], x2 = 0.5986	869.7	864.3	859	–	–	–	1234	0.613	0.575	0.538
[2], x2 = 0.6952	902.3	896.8	891.5	–	–	–	1260	0.697	0.652	0.608
[2], x2 = 0.7996	941.2	935.6	930	–	–	–	1290	0.815	0.76	0.705
[2], x2 = 0.8934	979.8	974.2	968.5	–	–	–	1318	0.958	0.889	0.821
